According to ChEMBL document CHEMBL3813683, “Design, synthesis and anti-cancer activity evaluation of podophyllotoxin-norcantharidin hybrid drugs” (Bioorg Med Chem Lett, 2016):

Legend:
MCF7 = experiment: Cytotoxicity against human MCF7 cells after 36 hrs by MTT assay; assay type: functional, cell-based; conditions: MCF7, 36 h
A549 = experiment: Cytotoxicity against human A549 cells after 36 hrs by MTT assay; assay type: functional, cell-based; conditions: A549, 36 h
HeLa = experiment: Cytotoxicity against human HeLa cells after 36 hrs by MTT assay; assay type: functional, cell-based
[1] = Cytotoxicity against HEK293T cells after 36 hrs by MTT assay; assay type: cell-based; conditions: Homo sapiens, HEK-293T

Row | Structure (SMILES) | IC50 (MCF7) | IC50 (A549) | IC50 (HeLa) | IC50 [1]
1 | COc1cc(C2c3cc4c(cc3[C@H](OC(=O)[C@H](Cc3ccccc3)N3C(=O)C5C6CCC(O6)C5C3=O)[C@H]3COC(=O)[C@H]23)OCO4)cc(OC)c1OC (stereo not given in full) | 6.53 µM | 3.69 µM | 8.79 µM | 70.3 µM
2 | COc1cc(C2c3cc4c(cc3[C@H](OC(=O)[C@H](C)N3C(=O)C5C6CCC(O6)C5C3=O)[C@H]3COC(=O)[C@H]23)OCO4)cc(OC)c1OC (stereo not given in full) | 1.22 µM | 1.18 µM | 3.02 µM | 64.2 µM
3 | COc1cc(C2c3cc4c(cc3[C@H](OC(=O)[C@H](C)N3C(=O)C5CCCCC5C3=O)[C@H]3COC(=O)[C@H]23)OCO4)cc(OC)c1OC (stereo not given in full) | 4.59 µM | 2.44 µM | 5.81 µM | 74.2 µM
4 | COc1cc(C2c3cc4c(cc3[C@H](OC(=O)C(C)N3C(=O)c5ccccc5C3=O)[C@H]3COC(=O)[C@H]23)OCO4)cc(OC)c1OC (stereo not given in full) | 16.8 µM | 5.37 µM | 17.2 µM | 51.3 µM
5 | COc1cc(C2c3cc4c(cc3[C@H](OC(=O)C(Cc3ccccc3)N3C(=O)c5ccccc5C3=O)[C@H]3COC(=O)[C@H]23)OCO4)cc(OC)c1OC (stereo not given in full) | 6.41 µM | 4.16 µM | 7.12 µM | 65.9 µM
6 | COc1cc(C2c3cc4c(cc3[C@H](OC(=O)C(C)N3C(=O)C5CCCCC5C3=O)[C@H]3COC(=O)[C@H]23)OCO4)cc(OC)c1OC (stereo not given in full) | 1.87 µM | 2.34 µM | 2.01 µM | 90.7 µM
7 | COc1cc(C2c3cc4c(cc3[C@H](OC(=O)C(C)N3C(=O)C5C6CCC(O6)C5C3=O)[C@H]3COC(=O)[C@H]23)OCO4)cc(OC)c1OC (stereo not given in full) | 1.74 µM | 1.91 µM | 1.86 µM | 53.2 µM
8 | COc1cc(C2c3cc4c(cc3[C@H](OC(=O)[C@@H](C)N3C(=O)c5ccccc5C3=O)[C@H]3COC(=O)[C@H]23)OCO4)cc(OC)c1OC (stereo not given in full) | 8.29 µM | 8.08 µM | 11.8 µM | 59.3 µM
9 | COc1cc(C2c3cc4c(cc3[C@H](OC(=O)[C@@H](C)N3C(=O)C5C6CCC(O6)C5C3=O)[C@H]3COC(=O)[C@H]23)OCO4)cc(OC)c1OC (stereo not given in full) | 1.17 µM | 2 µM | 1.14 µM | 80.8 µM
10 | COc1cc(C2c3cc4c(cc3[C@H](OC(=O)[C@@H](Cc3ccccc3)N3C(=O)c5ccccc5C3=O)[C@H]3COC(=O)[C@H]23)OCO4)cc(OC)c1OC (stereo not given in full) | 25.5 µM | 7.28 µM | 18.7 µM | 50.9 µM
